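Grown in 96-well plates, cells were treated for 48 hours with each compound at five concentrations. Insufficient inhibition: endpoint recorded as highest concentration tested. The concentration for 50% growth inhibition is given as GI50. TGI: total growth inhibition.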
Key:
Assay in all cases: growth of human tumour cells (NCI), 48 h
[1] = tested on: 786-0 renal
[2] = tested on: A498 renal
[3] = tested on: A549 NSCLC
[4] = tested on: ACHN renal
[5] = tested on: BT-549 breast
[6] = tested on: CAKI-1 renal
[7] = tested on: CCRF-CEM leukemia
[8] = tested on: COLO 205 colon
[9] = tested on: DU-145 prostate
[10] = tested on: EKVX NSCLC
[11] = tested on: HCC-2998 colon
[12] = tested on: HCT-116 colon
[13] = tested on: HCT-15 colon
[14] = tested on: HL-60(TB) leukemia
[15] = tested on: HOP-62 NSCLC
[16] = tested on: HS 578T breast
[17] = tested on: HT29 colon
[18] = tested on: IGROV1 ovarian
[19] = tested on: K-562 leukemia
[20] = tested on: KM12 colon
[21] = tested on: LOX IMVI melanoma
[22] = tested on: M14 melanoma
[23] = tested on: MCF7 breast
[24] = tested on: MDA-MB-231 breast
[25] = tested on: MDA-MB-435
[26] = tested on: MOLT-4 leukemia
[27] = tested on: NCI-H226 lung
[28] = tested on: NCI-H23 lung
[29] = tested on: NCI-H460 lung
[30] = tested on: NCI-H522 lung
[31] = tested on: NCI/ADR-RES ovarian
[32] = tested on: OVCAR-3 ovarian
[33] = tested on: OVCAR-4 ovarian
[34] = tested on: OVCAR-5 ovarian
[35] = tested on: OVCAR-8 ovarian
[36] = tested on: PC-3 prostate
[37] = tested on: RPMI-8226 leukemia
[38] = tested on: RXF 393 renal
[39] = tested on: SF-268 CNS
[40] = tested on: SF-295 CNS
[41] = tested on: SF-539 CNS
[42] = tested on: SK-MEL-2 melanoma
[43] = tested on: SK-MEL-28 melanoma
[44] = tested on: SK-MEL-5 melanoma
[45] = tested on: SK-OV-3 ovarian
[46] = tested on: SN12C renal
[47] = tested on: SNB-19 CNS
[48] = tested on: SNB-75 CNS
[49] = tested on: SR leukemia
[50] = tested on: SW-620 colon
[51] = tested on: T-47D breast
[52] = tested on: TK-10 renal
[53] = tested on: U251 CNS
[54] = tested on: UACC-257 melanoma
[55] = tested on: UACC-62 melanoma
[56] = tested on: UO-31 renal

Work on `O=c1[nH]c2ccccc2n1C1CCNCC1` yielded a GI50 [1] greater than 100 µM, a TGI [1] greater than 100 µM and a GI50 [2] of 24.4 µM. It also gave a TGI [2] greater than 100 µM, a GI50 [3] greater than 100 µM and a TGI [3] greater than 100 µM. It also gave a GI50 [4] greater than 100 µM, a TGI [4] greater than 100 µM and a GI50 [5] greater than 100 µM. It also gave a TGI [5] greater than 100 µM, a GI50 [6] greater than 100 µM and a TGI [6] greater than 100 µM. For the same compound, the GI50 [7] was greater than 100 µM, the TGI [7] was greater than 100 µM and the GI50 [8] was greater than 100 µM. For the same compound, the TGI [8] was greater than 100 µM, the GI50 [9] was greater than 100 µM and the TGI [9] was greater than 100 µM. The GI50 [10] was greater than 100 µM, the TGI [10] was greater than 100 µM and the GI50 [11] was greater than 100 µM. The TGI [11] was greater than 100 µM, the GI50 [12] was greater than 100 µM and the TGI [12] was greater than 100 µM. For the same compound, the GI50 [13] was greater than 100 µM, the TGI [13] was greater than 100 µM and the GI50 [14] was greater than 100 µM. It also gave a TGI [14] greater than 100 µM, a GI50 [15] greater than 100 µM and a TGI [15] greater than 100 µM. It also gave a GI50 [16] greater than 100 µM, a TGI [16] greater than 100 µM and a GI50 [17] greater than 100 µM. It also gave a TGI [17] greater than 100 µM, a GI50 [18] greater than 100 µM and a TGI [18] greater than 100 µM. It also gave a GI50 [19] greater than 100 µM, a TGI [19] greater than 100 µM and a GI50 [20] greater than 100 µM. The TGI [20] was greater than 100 µM, the GI50 [21] was greater than 100 µM and the TGI [21] was greater than 100 µM. The GI50 [22] was greater than 100 µM, the TGI [22] was greater than 100 µM and the GI50 [23] was greater than 100 µM. The TGI [23] was greater than 100 µM, the GI50 [24] was greater than 100 µM and the TGI [24] was greater than 100 µM. For the same compound, the GI50 [25] was greater than 100 µM, the TGI [25] was greater than 100 µM and the GI50 [26] was greater than 100 µM. It also gave a TGI [26] greater than 100 µM, a GI50 [27] greater than 100 µM and a TGI [27] greater than 100 µM. It also gave a GI50 [28] greater than 100 µM, a TGI [28] greater than 100 µM and a GI50 [29] greater than 100 µM. The TGI [29] was greater than 100 µM, the GI50 [30] was greater than 100 µM and the TGI [30] was greater than 100 µM. The GI50 [31] was greater than 100 µM, the TGI [31] was greater than 100 µM and the GI50 [32] was greater than 100 µM. For the same compound, the TGI [32] was greater than 100 µM, the GI50 [33] was greater than 100 µM and the TGI [33] was greater than 100 µM. It also gave a GI50 [34] greater than 100 µM, a TGI [34] greater than 100 µM and a GI50 [35] greater than 100 µM. The TGI [35] was greater than 100 µM, the GI50 [36] was greater than 100 µM and the TGI [36] was greater than 100 µM. For the same compound, the GI50 [37] was greater than 100 µM, the TGI [37] was greater than 100 µM and the GI50 [38] was greater than 100 µM. The TGI [38] was greater than 100 µM, the GI50 [39] was greater than 100 µM and the TGI [39] was greater than 100 µM. The GI50 [40] was greater than 100 µM, the TGI [40] was greater than 100 µM and the GI50 [41] was greater than 100 µM. The TGI [41] was greater than 100 µM, the GI50 [42] was greater than 100 µM and the TGI [42] was greater than 100 µM. For the same compound, the GI50 [43] was greater than 100 µM, the TGI [43] was greater than 100 µM and the GI50 [44] was greater than 100 µM. For the same compound, the TGI [44] was greater than 100 µM, the GI50 [45] was greater than 100 µM and the TGI [45] was greater than 100 µM. The GI50 [46] was greater than 100 µM, the TGI [46] was greater than 100 µM and the GI50 [47] was greater than 100 µM. The TGI [47] was greater than 100 µM, the GI50 [48] was greater than 100 µM and the TGI [48] was greater than 100 µM. It also gave a GI50 [49] greater than 100 µM, a TGI [49] greater than 100 µM and a GI50 [50] greater than 100 µM. It also gave a TGI [50] greater than 100 µM, a GI50 [51] greater than 100 µM and a TGI [51] greater than 100 µM. For the same compound, the GI50 [52] was greater than 100 µM, the TGI [52] was greater than 100 µM and the GI50 [53] was greater than 100 µM. For the same compound, the TGI [53] was greater than 100 µM, the GI50 [54] was greater than 100 µM and the TGI [54] was greater than 100 µM. The GI50 [55] was greater than 100 µM, the TGI [55] was greater than 100 µM and the GI50 [56] was greater than 100 µM. The TGI [56] was greater than 100 µM.

Source: PubChem BioAssay (NCI)
